Reference: patent US12564575B2 (priority 2019, dated 2026)
“Also recorded” adds a separate entry of the source.

Tests used:
[1] = test system: LPS/OA-induced lung injury and ARDS; format: in vivo, C57BL/6 mice
LPS/OA induced ARDS = test system: LPS/OA induced ARDS; set-up: species or system C57BL/6 mice; settings: mouse, in vivo, po, 10 mg/kg
[2] = test system: vero epithelial cells (CCL-81); test: ECIS study of vero epithelial cells exposed to snake venom; format: cell-based, African green monkey; settings: for cellular function and cell-cell junction integrity measured by resistance: C. scutulatus whole venom (high sPLA2 content)
[3] = test system: venom MP (Sistrurus venom metalloprotease activity); format: biochemical, Viper, elapid and colubrid venom; settings: FIG. 4, Table 2; comparison of hydroxamate metalloprotease inhibitors
Streptococcus suis = test: Juvenile pig with Streptococcus suis infection during experimental envenoming study; format: in vivo, Sus domesticus; settings: S. suis infected juvenile pig; LY315920 plus single non-curative antibiotic dose; euthanized as scheduled

SMILES | clinical appearance of treated animals ([1]; […], 24 and 48 hours, versus lethargic, tachypneic controls) | lung sound amplitude, distance from maximum (audiogram) ([1]; […], recordings at 24 hours, control −29.7 db) | difference in lung sound amplitude between treated and untreated mice ([1]; […], treated quieter) | alveolar damage (ATS workshop lung injury score) ([1]; mouse, in vivo) | damage from LPS/OA induced ARDS (histopathology) (LPS/OA induced ARDS) | cellular function and cell-cell junction integrity measured by resistance [2] | potency (IC50) against venom metalloprotease activity, in words [3] | difference in response between the two varespladib doses ([2]; 0.05 mg/ml versus 0.01 mg/mL) | inter-cellular attachments (resistance) and cell viability (capacitance) ([2]; C. scutulatus and Daboia russelli (Pakistan) venoms, varespladib 0.05 mg/ml and 0.01 mg/mL) | survival (Streptococcus suis)
C[C@H](Cc1cccc(-c2cc(Cc3ccccc3)ccc2C(N)=O)c1)C(=O)O [AZD2716, (R)-3-(5′-benzyl-2′-carbamoyl-[1,1′-biphenyl]-3-yl)-2-methylpropanoic acid] | bright, alert and responsive | −38.5 db | ~10 dB | prevented and rescued; also recorded: protects and reduces alveolar damage | rescue and reduce damage | preserves cellular function and cell-cell junction integrity |  |  |  | 
CNC(=O)[C@@H](NC(=O)[C@H](CC(C)C)[C@H](O)C(=O)NO)C(C)(C)C [marimastat] |  |  |  |  |  |  | good to excellent performance |  |  | 
CCc1c(C(=O)C(N)=O)c2c(OCC(=O)O)cccc2n1Cc1ccccc1 [varespladib] |  |  |  |  |  | preserves cellular function and cell-cell junction integrity |  | no significant difference | recovers and stabilizes inter-cellular attachments (resistance) and cell viability (capacitance) | > 100 h
